According to patent publication US20120077957A1, “Lactam-Bridged Melanocortin Receptor-Specific Peptides” (PALATIN TECHNOLOGIES, INC., priority 2009, published 2012):
Where two headings read alike, the source gives them in different places. Bridge positions count the residues as written; N and C are the ends. Square brackets hold non-standard residues; d marks the D form. Peptide text beside a SMILES is read from it. * marks the point of attachment. Orn = NCCC[C@H](N)C(=O)O; Bn = c1ccc(C*)cc1

Columns and labels:
human MC4-R [1] = target: T1, human MC4-R (Homo sapiens, UniProt P32245); experiment: Competitive inhibition binding assay with [I125]-NDP-α-MSH or Eu-NDP-α-MSH, membranes of HEK-293 cells expressing recombinant hMC4-R
T1 construct: expressed in transfected cells; host or cells: HEK293 T-REx (tetracycline-regulated, Invitrogen); cell line from Palatin Technologies with license from the University of Michigan
Experimental: A competitive inhibition binding assay was performed using membrane homogenates prepared from HEK-293 cells that express recombinant hMC4-R, hMC3-R, or hMC5-R, and from B-16 mouse melanoma cells (containing endogenous MC1-R). In some instances, HEK-293 cells that express recombinant hMC1-R were employed. In the examples that follow, all MC3-R, MC4-R and MC5-R values are for human recombinant receptors. […] After incubation for 60 minutes at 37° C., the assay mixture was filtered and the membranes washed three times with ice-cold buffer. Filters were dried and counted in a gamma counter for bound radioactivity. […] Maximal specific binding (100%) was defined as the difference in radioactivity (cpm) bound to cell membranes in the absence and presence of 1 μM NDP-α-MSH. […] Ki values for test peptides of the present invention were determined using Graph-Pad Prism® curve-fitting software.
Alternatively, a competitive inhibition binding assay was performed employing Eu-NDP-α-MSH (PerkinElmer Life Sciences catalog No. AD0225) with determination by time-resolved fluorometry (TRF) of the lanthanide chelate. […] After incubation for 90 minutes at 37° C., the reaction was stopped by filtration over AcroWell 96-well filter plates (Pall Life Sciences). The filter plates were washed 4 times with 200 μL of ice-cold phosphate-buffered saline. DELFIA Enhancement solution (PerkinElmer Life Sciences) was added to each well. […] Each assay was conducted in duplicate and mean values were utilized. Ki values were determined by curve-fitting with Graph-Pad Prism® software using a one-site fixed-slope competition binding model.

human MC4-R [2] = target: T1, human MC4-R; experiment: cAMP functional assay in HEK-293 T-REx cells expressing human MC4-R, induced with doxycycline 0.1 ng/mL (low density); format: cell-based; settings: doxycycline 0.1 ng/mL, averages of all comparable assays; for Emax: HEK293-T-REx, maximal cAMP stimulation, NDP-α-MSH = 100%, read-out: Emax; for EC50: human MC4-R cAMP assay, read-out: Ec50
Source text: A HEK293 cell line transfected with human MC4-R (from Palatin Technologies, US, with license from the University of Michigan) was used. The human MC4-R was introduced to HEK293 by using the T-REx™ System, Invitrogen. The T-REx™ System employs a tetracycline-regulated mammalian expression system that uses regulatory elements from the E. coli Tn10-encoded tetracycline (Tet) resistance operon. By use of the T-REx™ System, expression of the gene of interest, the human MC4-R gene, is repressed in the absence of tetracycline or doxycycline and induced in the presence of tetracycline or doxycycline (see T-REx™ System Manual, published by Invitrogen).
Cells were then counted and volume was adjusted to 5×10^4 cells per 200 μL.
The cells were then dispensed into 96-well plates (BD 353916) in 198 μL (about 5×10^4) cells/well and incubated for 10 minutes at 37° C. The compound to be tested was diluted with DMSO to a final concentration of 1 mM. Serial dilution was prepared in polypropylene removable 12-well library tube strips (VWR cat #83009-682). 120 μL of the 1 mM compound stock was pipetted in the second column on the plate.
2 μL of the standard, [Nle^4, D-Phe^7]alpha-Melanocyte Stimulating Hormone (NDP-α-MSH), or compound was added to the 96-well plate using the Janus robotic system. All assay samples were run in duplicate (i.e. each sample was in two low dox and two high dox plates, respectively). The plates were gently shaken and incubated for 15 minutes at 37° C. The reaction was stopped by adding 15 μL of lysis buffer per well and the plates were shakened for 30 minutes at room temperature.
Agonist stimulation of the MC4-R activates adenylate cyclase, which is an enzyme that catalyses the formation 3′,5′-cyclic adenosine monophosphate (cAMP) from adenosine triphosphate (ATP). […] Fluoresence ratios were then calculated as described in the CisBio HTRF kit, with GraphPad Prism software used to plot the change in fluorescence percent values versus cAMP concentration using the variable slope dose response curve and, based on calculated cAMP concentrations, to determine EC50 and Emax values. […]

[3] = human MC4-R, averages of all comparable assays, read-out: Ki

T1 sequence (P32245 whole entry): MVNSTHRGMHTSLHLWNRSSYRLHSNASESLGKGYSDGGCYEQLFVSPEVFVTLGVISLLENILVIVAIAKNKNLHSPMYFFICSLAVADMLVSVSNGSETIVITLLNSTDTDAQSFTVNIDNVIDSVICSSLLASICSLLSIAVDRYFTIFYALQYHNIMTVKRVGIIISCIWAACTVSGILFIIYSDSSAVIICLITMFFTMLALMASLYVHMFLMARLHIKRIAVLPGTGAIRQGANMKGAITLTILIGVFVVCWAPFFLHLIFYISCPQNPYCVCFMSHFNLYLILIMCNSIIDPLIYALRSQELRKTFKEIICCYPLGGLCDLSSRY

Row | SMILES | Ki (human MC4-R [1]; [3]) [nM] | Emax (human MC4-R [2]) [%] | EC50 (human MC4-R [2]) [nM] | Ki (human MC4-R [1]) [nM]
1 | CC(=O)N[C@@H](CCCCN)C(=O)N[C@H]1CCCNC(=O)CC[C@@H](C(N)=O)NC(=O)[C@H](Cc2c[nH]c3ccccc23)NC(=O)[C@H](CCCNC(=N)N)NC(=O)[C@@H](Cc2ccccc2)NC(=O)[C@H](Cc2c[nH]cn2)NC1=O [No. 40, Ac-Lys-cyclo(Orn-His-D-Phe-Arg-Trp-Glu)-NH2] (Ac-K[Orn]H[dF]RWE-NH2; lactam 2-7) | – | 114 | 0.2 | 3
2 | CC(=O)N[C@@H](CCCNC(=N)N)C(=O)N[C@H]1CC(=O)NCCCC[C@@H](C(=O)O)NC(=O)[C@H](Cc2c[nH]c3ccccc23)NC(=O)[C@H](CCCNC(=N)N)NC(=O)[C@@H](Cc2ccccc2)NC(=O)[C@H](CCCN)NC1=O [reference compound] | 18 | 84 | 12 | –
3 | CC(=O)N[C@@H](CCCNC(=N)N)C(=O)N[C@H]1CC(=O)NCCCC[C@@H](C(N)=O)NC(=O)[C@H](Cc2c[nH]c3ccccc23)NC(=O)[C@H](CCCNC(=N)N)NC(=O)[C@@H](Cc2ccccc2)NC(=O)[C@H](CCS(C)(=O)=O)NC1=O [reference compound] | 7 | 29 | – | –
4 | CC(=O)N[C@@H](CCCNC(=N)N)C(=O)N[C@H]1CC(=O)NCCCC[C@@H](C(N)=O)NC(=O)[C@H](Cc2c[nH]c3ccccc23)NC(=O)[C@H](CCCNC(=N)N)NC(=O)[C@@H](Cc2ccccc2)NC(=O)[C@@H]2C[C@@H](N)CN2C1=O [reference compound] | 5 | 61 | 8 | –
5 | CC(=O)NCCC[C@@H]1NC(=O)[C@@H](NC(=O)[C@H](CCCNC(=N)N)NC(C)=O)CC(=O)NCCCC[C@@H](C(N)=O)NC(=O)[C@H](Cc2c[nH]c3ccccc23)NC(=O)[C@H](CCCNC(=N)N)NC(=O)[C@@H](Cc2ccccc2)NC1=O [reference compound] | 573 | 62 | – | –
6 | CC(=O)N[C@@H](CCCNC(=N)N)C(=O)N[C@H]1CC(=O)NCCCC[C@@H](C(=O)O)NC(=O)[C@H](Cc2c[nH]c3ccccc23)NC(=O)[C@H](CCCNC(=N)N)NC(=O)[C@@H](Cc2ccccc2)NC(=O)[C@H](COCc2ccccc2)NC1=O [reference compound] | 9 | – | 5 | –
7 | CC(=O)NCC[C@@H]1NC(=O)[C@@H](NC(=O)[C@H](CCCNC(=N)N)NC(C)=O)CC(=O)NCCCC[C@@H](C(N)=O)NC(=O)[C@H](Cc2c[nH]c3ccccc23)NC(=O)[C@H](CCCNC(=N)N)NC(=O)[C@@H](Cc2ccccc2)NC1=O [reference compound] | – | 69 | – | 33
8 | CC(=O)N[C@@H](CCCNC(=N)N)C(=O)N[C@H]1CC(=O)NCCCC[C@@H](C(N)=O)NC(=O)[C@H](Cc2c[nH]c3ccccc23)NC(=O)[C@H](CCCNC(=N)N)NC(=O)[C@@H](Cc2ccccc2)NC(=O)[C@H](CC(N)=O)NC1=O [reference compound] (Ac-RDN[dF]RWK-NH2; lactam 2-7) | – | 91 | 42 | 32

Second part, led by results:

Row | Ki (human MC4-R [1]; [3]) [nM] | Emax (human MC4-R [2]) [%] | EC50 (human MC4-R [2]) [nM] | SMILES | Ki (human MC4-R [1]) [nM]
9 | 0.2 | 85 | 0.2 | CCCC[C@H](NC(C)=O)C(=O)N[C@H]1CCCNC(=O)CC[C@@H](C(N)=O)NC(=O)[C@H](Cc2c[nH]c3ccccc23)NC(=O)[C@H](CCCNC(=N)N)NC(=O)[C@@H](Cc2ccccc2)NC(=O)[C@H](Cc2c[nH]cn2)NC1=O [No. 36, Ac-Nle-cyclo(Orn-His-D-Phe-Arg-Trp-Glu)-NH2] | –
10 | 12 | 88 | 0.6 | CC(=O)N[C@@H](CCCNC(=N)N)C(=O)N[C@H]1CCCNC(=O)CC[C@@H](C(=O)O)NC(=O)[C@H](Cc2c[nH]c3ccccc23)NC(=O)[C@H](CCCNC(=N)N)NC(=O)[C@@H](Cc2ccccc2)NC(=O)[C@H](Cc2c[nH]cn2)NC1=O [No. 37, Ac-Arg-cyclo(Orn-His-D-Phe-Arg-Trp-Glu)-OH] (Ac-R[Orn]H[dF]RWE-OH; lactam 2-7) | –
11 | 1 | 84 | 1 | CC(=O)N[C@@H](CCCNC(=N)N)C(=O)N[C@H]1CCCNC(=O)CC[C@@H](C(N)=O)NC(=O)[C@H](Cc2c[nH]c3ccccc23)NC(=O)[C@H](CCCNC(=N)N)NC(=O)[C@@H](Cc2ccccc2)NC(=O)[C@H](Cc2c[nH]cn2)NC1=O [No. 38, Ac-Arg-cyclo(Orn-His-D-Phe-Arg-Trp-Glu)-NH2] (Ac-R[Orn]H[dF]RWE-NH2; lactam 2-7) | –
12 | 19 | 52 | 7 | CC(=O)N[C@@H](CCCNC(=N)N)C(=O)N[C@H]1CCCNC(=O)CC[C@@H](C(N)=O)NC(=O)[C@H](Cc2c[nH]c3ccccc23)NC(=O)[C@H](CCCNC(=N)N)NC(=O)[C@@H](Cc2ccccc2)NC(=O)[C@H](C)NC1=O [No. 41, Ac-Arg-cyclo(Orn-Ala-D-Phe-Arg-Trp-Glu)-NH2] (Ac-R[Orn]A[dF]RWE-NH2; lactam 2-7) | –
13 | – | 103 | 0.1 | CC(=O)N[C@@H](CCCNC(=N)N)C(=O)N[C@H]1CCCNC(=O)CC[C@@H](C(N)=O)NC(=O)[C@H](Cc2c[nH]c3ccccc23)NC(=O)[C@H](CCCNC(=N)N)NC(=O)[C@@H](Cc2ccccc2)NC(=O)[C@H](CCN)NC1=O [No. 43, Ac-Arg-cyclo(Orn-Dab-D-Phe-Arg-Trp-Glu)-NH2] | 3
14 | 5 | 54 | 6 | CC(=O)N[C@@H](CCCNC(=N)N)C(=O)N[C@H]1CCCNC(=O)CC[C@@H](C(N)=O)NC(=O)[C@H](Cc2c[nH]c3ccccc23)NC(=O)[C@H](CCCNC(=N)N)NC(=O)[C@@H](Cc2ccccc2)NC(=O)[C@@H]2CCCN2C1=O [No. 47, Ac-Arg-cyclo(Orn-Pro-D-Phe-Arg-Trp-Glu)-NH2] (Ac-R[Orn]P[dF]RWE-NH2; lactam 2-7) | –
15 | 5 | 50 | 3 | CC(=O)N[C@@H](CCCNC(=N)N)C(=O)N[C@H]1CCCNC(=O)CC[C@@H](C(=O)O)NC(=O)[C@H](Cc2c[nH]c3ccccc23)NC(=O)[C@H](CCCNC(=N)N)NC(=O)[C@@H](Cc2ccccc2)NC(=O)[C@H](COCc2ccccc2)NC1=O [No. 48, Ac-Arg-cyclo(Orn-Ser(Bzl)-D-Phe-Arg-Trp-Glu)-OH] (Ac-R[Orn]S(Bn)[dF]RWE-OH; lactam 2-7) | –
16 | 7 | 79 | – | CC(=O)N[C@@H](CCCNC(=N)N)C(=O)N[C@H]1CC(=O)NCCCC[C@@H](C(N)=O)NC(=O)[C@H](Cc2c[nH]c3ccccc23)NC(=O)[C@H](CCCNC(=N)N)NC(=O)[C@@H](Cc2ccccc2)NC(=O)[C@H](CCCN)NC1=O [reference compound] | –
17 | 9 | 85 | 5 | CC(=O)N[C@@H](CCCCN)C(=O)N[C@H]1CC(=O)NCCCC[C@@H](C(N)=O)NC(=O)[C@H](Cc2c[nH]c3ccccc23)NC(=O)[C@H](CCCNC(=N)N)NC(=O)[C@@H](Cc2ccccc2)NC(=O)[C@H](Cc2c[nH]cn2)NC1=O [reference compound] (Ac-KDH[dF]RWK-NH2; lactam 2-7) | –
18 | 19 | 74 | 37 | CC(=O)N[C@@H](CCCNC(=N)N)C(=O)N[C@H]1CC(=O)NCCCC[C@@H](C(N)=O)NC(=O)[C@H](Cc2c[nH]c3ccccc23)NC(=O)[C@H](CCCNC(=N)N)NC(=O)[C@@H](Cc2ccccc2)NC(=O)[C@H](C)NC1=O [reference compound] (Ac-RDA[dF]RWK-NH2; lactam 2-7) | –
